Test results from the NIST ThermoML archive (doi:10.1016/j.jct.2004.09.014).

Assay: xn = mol fraction of the nth substance listed
Conditions: 101.3 kPa, Liquid

COCCOCCO [2-(2-methoxyethoxy)ethanol] + CCOC(C)(C)C
mass density [kg/m3]
Conditions | 293.15 K | 298.15 K | 303.15 K | 308.15 K | 313.15 K
x2 = 0 | 1020.8 | 1016.4 | 1011.83 | 1007.69 | 1003.22
x2 = 0.0501 | 1008.17 | 1003.25 | 998.3 | 993.76 | 988.94
x2 = 0.1 | 995.15 | 990.04 | 984.9 | 980.19 | 975.19
x2 = 0.1459 | 982.68 | 977.43 | 972.25 | 967.46 | 962.35
x2 = 0.1998 | 967.77 | 962.42 | 957.22 | 952.39 | 947.16
x2 = 0.2556 | 951.99 | 946.59 | 941.41 | 936.49 | 931.19
x2 = 0.3031 | 938.38 | 932.91 | 927.71 | 922.72 | 917.37
x2 = 0.3521 | 924.22 | 918.7 | 913.47 | 908.42 | 902.96
x2 = 0.4004 | 910.16 | 904.58 | 899.35 | 894.26 | 888.75
x2 = 0.4511 | 895.34 | 889.68 | 884.41 | 879.28 | 873.72
x2 = 0.4998 | 881.09 | 875.34 | 870.08 | 864.91 | 859.34
x2 = 0.5628 | 862.65 | 856.89 | 851.64 | 846.47 | 840.9
x2 = 0.5997 | 851.96 | 846.15 | 840.91 | 835.75 | 830.21
x2 = 0.6621 | 833.91 | 828.16 | 822.99 | 817.83 | 812.29
x2 = 0.6997 | 823.14 | 817.44 | 812.33 | 807.17 | 801.6
x2 = 0.7411 | 811.55 | 805.81 | 800.69 | 795.54 | 790.02
x2 = 0.7995 | 795.39 | 789.63 | 784.53 | 779.35 | 773.85
x2 = 0.8401 | 784.28 | 778.52 | 773.45 | 768.28 | 762.75
x2 = 0.8998 | 768.16 | 762.41 | 757.39 | 752.25 | 746.7
x2 = 0.9498 | 754.72 | 748.99 | 744.04 | 738.99 | 733.52

CCOC(C)(C)C [2-ethoxy-2-methylpropane] + COCCO
mass density [kg/m3]
Conditions | 293.15 K | 298.15 K | 303.15 K | 308.15 K | 313.15 K
x1 = 0.0501 | 950.05 | 944.7 | 939.45 | 934.22 | 928.99
x1 = 0.1 | 936.06 | 930.57 | 925.31 | 919.94 | 914.61
x1 = 0.1508 | 921.99 | 916.4 | 911.08 | 905.73 | 900.29
x1 = 0.2 | 908.51 | 902.92 | 897.66 | 892.25 | 886.78
x1 = 0.2512 | 894.84 | 889.15 | 883.86 | 878.57 | 873.09
x1 = 0.299 | 882.19 | 876.57 | 871.27 | 865.98 | 860.41
x1 = 0.3489 | 869.14 | 863.45 | 858.24 | 852.9 | 847.36
x1 = 0.4 | 856.06 | 850.34 | 845.06 | 839.8 | 834.21
x1 = 0.4503 | 843.79 | 837.98 | 832.77 | 827.45 | 821.87
x1 = 0.499 | 832.46 | 826.63 | 821.36 | 816.1 | 810.51
x1 = 0.55 | 821.14 | 815.31 | 810.08 | 804.81 | 799.19
x1 = 0.61 | 808.56 | 802.72 | 797.49 | 792.22 | 786.6
x1 = 0.6599 | 798.66 | 792.76 | 787.53 | 782.25 | 776.65
x1 = 0.7 | 790.96 | 785.07 | 779.87 | 774.61 | 769.03
x1 = 0.7511 | 781.59 | 775.75 | 770.56 | 765.33 | 759.73
x1 = 0.8 | 773.01 | 767.18 | 762.01 | 756.8 | 751.25
x1 = 0.8489 | 764.84 | 759.04 | 753.94 | 748.76 | 743.21
x1 = 0.9 | 756.5 | 750.81 | 745.76 | 740.66 | 735.16
x1 = 0.949 | 748.89 | 743.23 | 738.32 | 733.24 | 727.78
x1 = 1 | 741.11 | 735.59 | 730.85 | 725.98 | 720.69

COCCOCCOCCO [2-[2-(2-methoxyethoxy)ethoxy]ethanol] + CCOC(C)(C)C
mass density [kg/m3]
Conditions | 293.15 K | 298.15 K | 303.15 K | 308.15 K | 313.15 K
x2 = 0 | 1047.29 | 1042.97 | 1038.65 | 1034.33 | 1030.01
x2 = 0.0504 | 1037.46 | 1032.75 | 1028.05 | 1023.44 | 1018.75
x2 = 0.1 | 1026.36 | 1021.48 | 1016.59 | 1011.83 | 1006.97
x2 = 0.1509 | 1014.18 | 1009.14 | 1004.22 | 999.35 | 994.34
x2 = 0.2025 | 1000.97 | 995.85 | 990.92 | 985.93 | 980.82
x2 = 0.2489 | 988.73 | 983.55 | 978.6 | 973.56 | 968.35
x2 = 0.3007 | 974.54 | 969.31 | 964.34 | 959.27 | 953.99
x2 = 0.3511 | 960.3 | 954.96 | 949.94 | 944.86 | 939.57
x2 = 0.3999 | 946.13 | 940.72 | 935.65 | 930.52 | 925.15
x2 = 0.4508 | 930.95 | 925.44 | 920.33 | 915.15 | 909.71
x2 = 0.5001 | 915.87 | 910.23 | 905.09 | 899.84 | 894.39
x2 = 0.5493 | 900.4 | 894.71 | 889.55 | 884.29 | 878.77
x2 = 0.6 | 884.14 | 878.36 | 873.18 | 867.9 | 862.36
x2 = 0.6503 | 867.65 | 861.88 | 856.69 | 851.4 | 845.82
x2 = 0.6998 | 851.17 | 845.39 | 840.21 | 834.91 | 829.29
x2 = 0.7491 | 834.48 | 828.67 | 823.52 | 818.24 | 812.58
x2 = 0.7999 | 816.94 | 811.16 | 806.01 | 800.74 | 795.06
x2 = 0.8509 | 798.94 | 793.17 | 788.08 | 782.84 | 777.19
x2 = 0.9001 | 780.97 | 775.22 | 770.16 | 764.98 | 759.37
x2 = 0.9498 | 761.89 | 756.2 | 751.24 | 746.17 | 740.68
